The values below come from patent publication US20090209620A1, “Direct Reversal Of The Suppressive Function Of CD4+Regulatory T Cells Via Toll-Like Receptor 8 Signaling” (priority 2005, published 2009).

In the oligonucleotide strings, read from the 5' end, every base follows the letter of its sugar. An asterisk marks phosphorothioate; unmarked linkages are phosphodiester. Other units and linkages are bracketed, terminal groups are in braces. A string of capitals states the bases alone. d = 2'-deoxy (DNA)

Data set [1] has as its system CD4+ Treg cells (Treg102, Treg164). The experiment in a line: Proliferation assay without DCs: Treg suppression of naive CD4+ T cell proliferation, anti-CD3-coated plates. The note with it: absence of DCs; for reversal of Treg cell-mediated suppression of naive CD4+ T cell proliferation: anti-CD3-coated plates, oligonucleotides 3 ug/ml in medium. The class given is cell-based, human. From the text:
(§1) Establishing Treg cell lines and purifying natural CD4^+ CD25^+ Treg cells CD4^+ Treg clones were established from CD4^+ tumor-infiltrating lymphocytes (TIL102 and TIL164) and maintained in RPMI 1640 medium containing 10% human AB serum and recombinant IL-2 (300 IU/ml) using methods well known in the art (See, e.g., H. Y. Wang et al., Immunity 20, 107-118 (2004)). Treg clones derived from TIL102 or TIL164 cells were pooled and designated Treg102 or Treg164. Naturally occurring CD4^+ CD25^+ Treg cells were obtained by sorting CD4^+ T cell populations from fresh PBMCs after staining with anti-CD4 and anti-CD25 antibodies. To obtain optimal expansion, the OKT3 expansion method was performed using methods well known in the art (See, e.g., H. Y. Wang et al., Immunity 20, 107-118 (2004)). T cell clones were maintained at a low IL-2 concentration (300 IU/ml). Melanoma cell lines and EBV-transformed B-cell lines used in this study were cultured in RPMI 1640 medium containing 10% FCS. Human embryonic kidney (HEK) 293 and Epstein-Barr virus (EBV)-transformed B cell lines were maintained in RPMI 1640 with 10% fetal calf serum (FCS).
B. Proliferation assay without DCs: 1×10^5 näive CD4 T cells were cultured with regulatory T cells at different ratios (1: 0.2, 1:0.1 and 1:0.05) in anti-CD3 mAb-coated (2 ug/ml) 96-well plates in the presence or absence of the following TLR ligands or cytokines: CpG-A (3 ug/ml), CpG-B (3 ug/ml), LPS (100 ng/ml), TNF.-α (20 ng/ml), IFN-α (100 ng/ml), or IL-6 (100 ng/ml). After 56 h of culture, [3H]thymidine was added at a final concentration of 1 uCi/well, followed by an additional 16 h of culture. The incorporation of [^3H]thymidine was measured with a liquid scintillation counter.
Näive CD4^+ T cell proliferation experiments were performed similar to those in FIG. 1A, but in the absence of DCs. […] The reversal effect of CpG-A (SEQ ID NO: 1) contrasts with the failure of CpG-B (SEQ ID NO: 2), LPS, TNF-α, IL-6 or IFN-α to block the suppressive activity of CD4^+ Treg cells against naive CD4^+ T cells (FIG. 1B).
To further define the CpG-A (SEQ ID NO: 1) sequences responsible for the observed reversal effect, CpG-NG (SEQ ID NO: 5) and Poly-G10 (SEQ ID NO: 6), were tested for their ability to reverse the suppressive function of Treg cells. Naive CD4^+ T cells were mixed with CD4^+ Treg cells in anti-CD3 antibody-coated 96-wells with 200 μl of medium containing CpG-NG (SEQ ID NO: 5), CpG-A (SEQ ID NO: 1) or Poly-G10 (SEQ ID NO: 6). The proliferation assay was conducted as described in FIG. 1. […] For the experiments shown in FIG. 2B, naive CD4^+ T cells were mixed with CD4^+ Treg cells in anti-CD3 antibody-coated 96-wells with 200 μl of medium containing Poly-A10 (SEQ ID NO: 7), Poly-T10 (SEQ ID NO: 9) or Poly-C10 (SEQ ID NO: 8), while the Poly-G10 (SEQ ID NO: 6) oligonucleotides served as a positive control.
A series of oligonucleotides with decreasing numbers of guanosine nucleosides was constructed to determine the minimal number required for the reversal effect. For the experiments in FIG. 2C, CD4^+ T cells were mixed with CD4^+ Treg cells in anti-CD3 antibody-coated 96-wells containing medium with protected phosphorothioate linked guanosine nucleoside containing oligonucleotides of various lengths, while the unprotected five guanosines (SEQ ID NO: 10) served as a control.

Data set [2] has the same test system. As to the kind of experiment: Proliferation assay with dendritic cells: Treg suppression of naive CD4+ T cell proliferation ([3H]thymidine). The class given is cell-based, human. The note with it: with DCs and soluble anti-CD3; CpG-A 3 ug/ml.
Description: as §1
A. Proliferation assay with Dendritic Cells (DCs): Näive CD4^+ T cells were purified from PBMCs using microbeads (Miltenvi Biotec). DCs were generated from PBMC-derived monocytes in the presence of IL-4 (500 ng/ml) and GM-CSF (800 ng/ml) for 7 days. 1×105 näive CD4^+ T cells were cultured with regulatory T cells at different ratios (1: 0.2, 1:0.1 and 1:0.05) in 200 ul of medium containing 2×104 of DCs and anti-CD3 antibody (100 ng/ml) plus one of the following TLR ligands or cytokines: CpG-A (3 ug/ml), CpG-B (3 ug/ml), LPS (100 ng/ml), TNF.-α (20 ng/ml), IFN-α (100 ng/ml), or IL-6 (100 ng/ml). After 56 h of culture, [3H]thymidine was added at a final concentration of 1 uCi/well, followed by an additional 16 h. of culture. The incorporation of [^3H]thymidine was measured with a liquid scintillation counter, using methods well known in the art (See, e.g., M. K. Levings et al., J. Exp. Med. 196, 1335-46 (2002)). All experiments were performed in triplicate.
Two CD4^+ Treg cell lines, designated Treg102 and Treg164, were generated with a panel of Treg cell clones derived from TIL102 and TIL164 cells. […] A functional proliferation assay was employed to examine whether CpG (a TLR9 ligand), LPS (a TLR4 ligand) or the cytokines IL-6 or IFN-α could regulate the suppressive activity of antigen specific human CD4^+ Treg cells in the presence of DCs. […]

With G* GGGGACGATCGTCG* G*G*G*G*G [CpG-A], in data set [1], the “effect on proliferation of naive CD4+ T cells or Treg cells alone” value is on record as “lacked any effect” and the “reversal of Treg cell-mediated suppression of naive CD4+ T cell proliferation” value is “restored the proliferation of naive CD4^+ T cells to near normal levels”. In addition, the “proliferation of naive CD4+ T cells restored, % of normal levels” value in data set [2] is 50-80%.

Consider “Poly-G10: guanosine oligonucleotide with protected phosphorothioate backbone (DNA dG*dG*dG*dG*dG*dG*dG*dG*dG*dG)”, for which, in data set [1], the “reversal of Treg cell-mediated suppression of naive CD4+ T cell proliferation” value is “retained or even enhanced”.
